Measured values taken from paper PMC8544286, “Screening and Identification of a Novel Anti-tuberculosis Compound That Targets Deoxyuridine 5′-Triphosphate Nucleotidohydrolase” (Frontiers in Microbiology, 2021).
Values after ≈ are worked out from the molar mass of the structure shown. Where two headings read alike, the source gives them in different places.

Assays:
[1] = system: multidrug-resistant strain MDR-FJ05120; assay: microbe, parasite or virus in culture; assay type: cell-based; settings: Mycobacterium tuberculosis, 168 h
[2] = system: multidrug-resistant strain MDR-FJ05189; assay: microbe, parasite or virus in culture; assay type: cell-based; settings: Mycobacterium tuberculosis, 168 h
[3] = system: extensive drug-resistant strain XDR-FJ05195; assay: microbe, parasite or virus in culture; assay type: cell-based; settings: Mycobacterium tuberculosis, 168 h
[4] = system: extensive drug-resistant strain XDR-XZ06008; assay: microbe, parasite or virus in culture; assay type: cell-based; settings: Mycobacterium tuberculosis, 168 h
Mt-P79A-dUTPase = Mt-P79A-dUTPase (Mycobacterium tuberculosis, UniProt P9WNS5, P79A); assay type: binding
[5] = […], MABA, 7 days at 37°C, read-out: MIC

Row | Structure (SMILES) | MIC [1, 5] [µg/mL] | MIC [2, 5] [µg/mL] | MIC [3, 5] [µg/mL] | MIC [4, 5] [µg/mL] | SPR binding to Mt-P79A-dUTPase (Mt-P79A-dUTPase) | MIC [1] [µg/mL] | MIC [2] [µg/mL] | MIC [3] [µg/mL] | MIC [4] [µg/mL]
1 | C=CCn1c(/C=C/c2ccccc2)nc2ccccc21 [F0414] | 8 (≈ 30.7 µM) | 2 (≈ 7.68 µM) | 2 (≈ 7.68 µM) | 8 (≈ 30.7 µM) | much weaker affinity |  |  |  | 
2 | NNC(=O)c1ccncc1 [Isoniazid] | 4 (≈ 29.2 µM) | < 0.5 | > 256 | > 256 |  |  |  |  | 
3 | CO[C@H]1/C=C/O[C@@]2(C)Oc3c(C)c(O)c4c(O)c(c(/C=N/N5CCN(C)CC5)c(O)c4c3C2=O)NC(=O)/C(C)=C\C=C\[C@H](C)[C@H](O)[C@@H](C)[C@@H](O)[C@@H](C)[C@H](OC(C)=O)[C@@H]1C [Rifampicin] |  |  |  |  |  | > 256 | > 256 | 4 (≈ 4.86 µM) | > 256
